As a reminder, the IC50 is the concentration at which inhibition is half-maximal. A lower IC50 goes with greater potency.

The values that follow come from patent US20210253575A1, “PYRROLIDINE AMINE COMPOUNDS FOR THE TREATMENT OF AUTOIMMUNE DISEASE” (Hoffmann-La Roche Inc., priority 2018, published 2021).

SMILES strings stand for the structures.

The target in the experiment is T1, human TLR7 (Homo sapiens, UniProt Q9NYK1).
T1 sequence (Q9NYK1 27-1049): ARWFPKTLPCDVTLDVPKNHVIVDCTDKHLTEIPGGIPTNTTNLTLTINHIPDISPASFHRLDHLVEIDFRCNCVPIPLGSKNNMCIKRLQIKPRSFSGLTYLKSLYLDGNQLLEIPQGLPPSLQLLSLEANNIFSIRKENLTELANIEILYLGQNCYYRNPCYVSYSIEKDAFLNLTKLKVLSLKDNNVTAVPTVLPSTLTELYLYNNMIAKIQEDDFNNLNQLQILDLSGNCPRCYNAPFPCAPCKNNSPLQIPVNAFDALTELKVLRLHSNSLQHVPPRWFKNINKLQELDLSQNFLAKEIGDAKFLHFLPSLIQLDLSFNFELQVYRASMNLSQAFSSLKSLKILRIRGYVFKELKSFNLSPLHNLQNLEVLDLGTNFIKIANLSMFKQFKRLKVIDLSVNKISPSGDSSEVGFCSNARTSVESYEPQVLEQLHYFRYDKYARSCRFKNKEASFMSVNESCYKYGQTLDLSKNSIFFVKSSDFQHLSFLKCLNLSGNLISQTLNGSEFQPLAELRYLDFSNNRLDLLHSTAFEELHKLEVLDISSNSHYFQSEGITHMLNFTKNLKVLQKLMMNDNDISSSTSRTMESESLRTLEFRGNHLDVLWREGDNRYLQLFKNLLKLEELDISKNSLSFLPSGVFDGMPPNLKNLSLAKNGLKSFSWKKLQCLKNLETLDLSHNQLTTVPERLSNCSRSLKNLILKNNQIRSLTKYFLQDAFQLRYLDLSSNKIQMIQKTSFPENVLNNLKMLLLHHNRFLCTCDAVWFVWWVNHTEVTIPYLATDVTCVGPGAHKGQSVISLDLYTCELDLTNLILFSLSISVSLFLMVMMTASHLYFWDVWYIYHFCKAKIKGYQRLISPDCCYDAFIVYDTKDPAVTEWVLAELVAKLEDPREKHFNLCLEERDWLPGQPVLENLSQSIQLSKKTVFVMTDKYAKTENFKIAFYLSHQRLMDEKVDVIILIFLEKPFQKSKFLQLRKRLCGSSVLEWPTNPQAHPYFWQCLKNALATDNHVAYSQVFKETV
As to the kind of experiment: HEK293-Blue-hTLR-7 cells assay (SEAP reporter, R848 stimulation). Particulars: HEK293-Blue-hTLR7 cells, R848 ligand, 20 hrs incubation. In kind it is cell-based. On the procedure:
The following tests were carried out in order to determine the activity of the compounds of formula (I) in HEK293-Blue-hTLR-7/8/9 cells assay.
HEK293-Blue-hTLR-7 Cells Assay:
A stable HEK293-Blue-hTLR-7 cell line was purchased from InvivoGen (Cat. #: hkb-htlr7, San Diego, Calif., USA). These cells were originally designed for studying the stimulation of human TLR7 by monitoring the activation of NF-κB. A SEAP (secreted embryonic alkaline phosphatase) reporter gene was placed under the control of the IFN-β minimal promoter fused to five NF-κB and AP-1-binding sites. The SEAP was induced by activating NF-κB and AP-1 via stimulating HEK-Blue hTLR7 cells with TLR7 ligands. Therefore the reporter expression was declined by TLR7 antagonist under the stimulation of a ligand, such as R848 (Resiquimod), for incubation of 20 hrs. The cell culture supernatant SEAP reporter activity was determined using QUANTI-Blue™ kit (Cat. #: rep-qb1, Invivogen, San Diego, Ca, USA) at a wavelength of 640 nm, a detection medium that turns purple or blue in the presence of alkaline phosphatase.
HEK293-Blue-hTLR7 cells were incubated at a density of 250,000-450,000 cells/mL in a volume of 170 μL in a 96-well plate in Dulbecco's Modified Eagle's medium (DMEM) containing 4.5 g/L glucose, 50 U/mL penicillin, […], […], 2 mM L-glutamine, 10% (v/v) heat-inactivated fetal bovine serum with addition of 20 μL test compound in a serial dilution in the presence of final DMSO at 1% and 10 μL of 20 uM R848 in above DMEM, perform incubation under 37° C. in a CO2 incubator for 20 hrs. Then 20 μL of the supernatant from each well was incubated with 180 μL Quanti-blue substrate solution at 37° C. for 2 hrs and the absorbance was read at 620-655 nm using a spectrophotometer. The signalling pathway that TLR7 activation leads to downstream NF-κB activation has been widely accepted, and therefore similar reporter assay was modified for evaluating TLR7 antagonist.
Consider `CC[C@@H]1CN(c2ccc(C#N)c3ncccc23)C[C@H]1CN1CCC2(CCNCC2)CC1` (relative stereo) [Example 15, 5-[Trans-3-(3,9-diazaspiro[5.5]undecan-3-ylmethyl)-4-ethyl-pyrrolidin-1-yl]quinoline-8-carbonitrile], for which the IC50 is 107 nM.

As for `FC(F)(F)c1ccc(N2C[C@@H](CN3CCC4(CCNC4)C3)[C@H](C(F)(F)F)C2)c2nccnc12` (relative stereo) [Example 19, 5-[Trans-3-(2,7-diazaspiro[4.4]nonan-2-ylmethyl)-4-(trifluoromethyl)pyrrolidin-1-yl]-8-(trifluoromethyl)quinoxaline], 142 nM corresponded to half-maximal inhibition (IC50).

With `C[C@@H]1CN(c2ccc(C(F)(F)F)c3nccnc23)C[C@H]1CN1CCC2(CCNCC2)CC1` (relative stereo) [Example 21, 3-[[Trans-4-methyl-1-[8-(trifluoromethyl)quinoxalin-5-yl]pyrrolidin-3-yl]methyl]-3,9-diazaspiro[5.5]undecane], the IC50 came out at 189 nM.

The compound `N#Cc1ccc(N2C[C@@H](CN3CCC4(CCNCC4)CC3)[C@H](C(F)F)C2)c2cccnc12` (relative stereo) [Example 27, 5-[Trans-3-(3,9-diazaspiro[5.5]undecan-3-ylmethyl)-4-(difluoromethyl)pyrrolidin-1-yl]quinoline-8-carbonitrile] gave an IC50 of 354 nM.

The compound `N#Cc1ccc(N2C[C@@H](CN3CCC4(CCNCC4)CC3)[C@H](C3CC3)C2)c2cccnc12` (relative stereo) [Example 28, 5-[Trans-3-cyclopropyl-4-(3,9-diazaspiro[5.5]undecan-3-ylmethyl)pyrrolidin-1-yl]quinoline-8-carbonitrile] showed an IC50 of 355 nM.

`CC[C@@H]1CN(c2ccc(C#N)c3ncccc23)C[C@H]1CN1CCC2(CCNC2)C1` (relative stereo) [Example 29, 5-[Trans-3-(2,7-diazaspiro[4.4]nonan-2-ylmethyl)-4-ethyl-pyrrolidin-1-yl]quinoline-8-carbonitrile] gave an IC50 of 370 nM.

In turn, `C[C@@H]1CN(c2ccc(C(F)(F)F)c3nccnc23)C[C@H]1CN1CCC(N2CCCCC2)CC1` (relative stereo) [Example 33, 5-[Trans-3-methyl-4-[[4-(1-piperidyl)-1-piperidyl]methyl]pyrrolidin-1-yl]-8-(trifluoromethyl)quinoxaline] registered a 50% inhibitory concentration (IC50) of 432 nM.

In turn, `N#Cc1ccc(N2C[C@@H](CN3CCC4(CCNC4)C3)[C@H](C(F)F)C2)c2cccnc12` (relative stereo) [Example 34, 5-[Trans-3-(2,7-diazaspiro[4.4]nonan-2-ylmethyl)-4-(difluoromethyl)pyrrolidin-1-yl]quinoline-8-carbonitrile] had an IC50 of 454 nM.

`CC(C)[C@@H]1CN(c2ccc(C#N)c3ncccc23)C[C@H]1CN1CCC2(CCNCC2)CC1` (relative stereo) [Example 36, 5-[Trans-3-(3,9-diazaspiro[5.5]undecan-3-ylmethyl)-4-isopropyl-pyrrolidin-1-yl]quinoline-8-carbonitrile] returned an IC50 of 471 nM.

Compound `CC(C)[C@@H]1CN(c2ccc(C#N)c3ncccc23)C[C@H]1CN1CCC2(CCNC2)C1` (relative stereo) [Example 44, 5-[Trans-3-(2,7-diazaspiro[4.4]nonan-2-ylmethyl)-4-isopropyl-pyrrolidin-1-yl]quinoline-8-carbonitrile] yielded an IC50 of 963 nM.

The compound `N#Cc1ccc(N2CC(CN3CCC(N)CC3)C3(CC3)C2)c2nccnc12` (single isomer, unassigned) [Example 68A, 8-[7-[(4-Amino-1-piperidyl)methyl]-5-azaspiro[2.4]heptan-5-yl]quinoxaline-5-carbonitrile] displayed an IC50 of 61 nM.

In turn, `N#Cc1ccc(N2C[C@H](CN3CCC4(CCNCC4)CC3)[C@@H](C(F)(F)F)C2)c2nccnc12` [Example 1, 8-[(3S,4R)-3-(3,9-diazaspiro[5.5]undecan-3-ylmethyl)-4-(trifluoromethyl)pyrrolidin-1-yl]quinoxaline-5-carbonitrile] came in with an IC50 of 5 nM.

Compound `N#Cc1ccc(N2C[C@H](CN3CCC4(CCNCC4)CC3)[C@@H](C(F)(F)F)C2)c2cccnc12` [Example 2, 5-[(3S,4R)-3-(3,9-diazaspiro[5.5]undecan-3-ylmethyl)-4-(trifluoromethyl)pyrrolidin-1-yl]quinoline-8-carbonitrile] came in with an IC50 of 20 nM.

In turn, `N#Cc1ccc(N2C[C@H](CN3CCC4(CCNC4)C3)[C@@H](C(F)(F)F)C2)c2nccnc12` (stereo partly drawn) [Example 5, 8-[(3S,4R)-3-(2,7-diazaspiro[4.4]nonan-2-ylmethyl)-4-(trifluoromethyl)pyrrolidin-1-yl]quinoxaline-5-carbonitrile] returned an IC50 of 36 nM.

Compound `N#Cc1ccc(N2C[C@H](CN3CCC4(CCCNC4)C3)[C@@H](C(F)(F)F)C2)c2cccnc12` (stereo partly drawn) [Example 6, 5-[(3S,7R)-3-(2,9-diazaspiro[4.5]decan-2-ylmethyl)-4-(trifluoromethyl)pyrrolidin-1-yl]quinoline-8-carbonitrile] registered an IC50 of 48 nM.

In turn, `CC1(N)CCN(CC2CN(c3ccc(C#N)c4nccnc34)CC23CC3)CC1` (stereo not shown) [Example 7, 8-[7-[(4-Amino-4-methyl-1-piperidyl)methyl]-5-azaspiro[2.4]heptan-5-yl]quinoxaline-5-carbonitrile] returned an IC50 of 54 nM.

Take `N#Cc1ccc(N2C[C@H](CN3CC4(CCCNC4)C3)[C@@H](C(F)(F)F)C2)c2cccnc12` [Example 8, 5-[(3S,7R)-3-(2,8-diazaspiro[3.5]nonan-2-ylmethyl)-4-(trifluoromethyl)pyrrolidin-1-yl]quinoline-8-carbonitrile]: the IC50 is 57 nM.

Regarding `N#Cc1ccc(N2C[C@H](CN3CCC4(CCNC4)C3)[C@@H](C(F)(F)F)C2)c2cccnc12` (stereo partly drawn) [Example 9, 5-[(3S,4R)-3-(2,7-diazaspiro[4.4]nonan-2-ylmethyl)-4-(trifluoromethyl)pyrrolidin-1-yl]quinoline-8-carbonitrile], inhibition was half-maximal at 61 nM (IC50).

In turn, `N#Cc1ccc(N2C[C@H](CN3CCC(N4CCCCC4)CC3)[C@@H](C(F)(F)F)C2)c2cccnc12` [Example 10, 5-[(3S,4R)-3-[[4-(1-piperidyl)-1-piperidyl]methyl]-4-(trifluoromethyl)pyrrolidin-1-yl]quinoline-8-carbonitrile] showed an IC50 of 69 nM.

As for `N#Cc1ccc(N2CC(CN3CCC(N4CCCCC4)CC3)C3(CC3)C2)c2nccnc12` (stereo not shown) [Example 11, 8-[7-[[4-(1-Piperidyl)-1-piperidyl]methyl]-5-azaspiro[2.4]heptan-5-yl]quinoxaline-5-carbonitrile], the IC50 is 74 nM.

`CC1(N)CCN(C[C@H]2CN(c3ccc(C#N)c4nccnc34)C[C@@H]2C(F)(F)F)CC1` [Example 12, 8-[(3S,4R)-3-[(4-amino-4-methyl-1-piperidyl)methyl]-4-(trifluoromethyl)pyrrolidin-1-yl]quinoxaline-5-carbonitrile] yielded an IC50 of 15 nM.

For `N#Cc1ccc(N2CC(CN3CCC4(CCCNC4)CC3)C3(CC3)C2)c2nccnc12` (stereo not shown) [Example 13, 8-[7-(2,9-Diazaspiro[5.5]undecan-9-ylmethyl)-5-azaspiro[2.4]heptan-5-yl]quinoxaline-5-carbonitrile], the concentration for half-maximal inhibition (IC50) was determined as 102 nM.
